The results in this text go back to patent publication US9732063B2, “Kinase inhibitors” (RESPIVERT LIMITED, priority 2012, dated 2017).

Assay [1] relates to PBMCs. Nature of the assay: LPS-induced TNFα/IL-8 release in PBMC cells. It counts as cell-based. The note with it: Homo sapiens, read-out: IC50 Values for Inhibition of Cytokine Release PBMCs IL-8. A digest of the protocol:
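TNFα and IL-8 in supernatants were measured by sandwich ELISA after 24 h of 1 ng/mL LPS (E. coli O111:B4) at 37 °C, 5% CO2. Test compounds were added 2 h before LPS to PBMCs from healthy subjects, separated on a density gradient.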

The next assay deals with c-Src (Homo sapiens (Human), UniProt P12931). The experiment in a line: c-Src enzyme inhibition (Z-LYTE FRET). It counts as biochemical. A digest of the protocol: (§1)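 Kinase activity is measured on a dual-labelled synthetic peptide by FRET. ATP is supplied as an 800 μM solution for c-Src and a 60 μM solution for Syk. Compound is tested at four added concentrations, 4 to 0.004 μg/mL.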
Sequence of c-Src (P12931 whole entry, looked up): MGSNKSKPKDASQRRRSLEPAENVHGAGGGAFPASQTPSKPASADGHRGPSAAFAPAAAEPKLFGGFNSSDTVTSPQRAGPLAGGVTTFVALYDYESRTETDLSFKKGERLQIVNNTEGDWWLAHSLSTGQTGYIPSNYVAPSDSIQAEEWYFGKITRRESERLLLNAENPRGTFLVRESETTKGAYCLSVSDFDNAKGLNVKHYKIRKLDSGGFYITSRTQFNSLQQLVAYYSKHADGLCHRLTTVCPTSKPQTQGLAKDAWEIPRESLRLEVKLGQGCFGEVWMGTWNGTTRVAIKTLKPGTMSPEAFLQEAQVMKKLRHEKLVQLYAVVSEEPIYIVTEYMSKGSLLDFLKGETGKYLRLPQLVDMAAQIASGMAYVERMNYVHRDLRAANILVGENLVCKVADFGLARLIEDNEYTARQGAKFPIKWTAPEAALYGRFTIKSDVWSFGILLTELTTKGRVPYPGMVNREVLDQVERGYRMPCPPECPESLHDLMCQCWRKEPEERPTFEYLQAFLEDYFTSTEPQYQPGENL

The next assay relates to d-U937 cells. The experiment in a line: LPS-induced TNFα/IL-8 release in d-U937 cells. It counts as cell-based. The note with it: Homo sapiens. How it is done:
Cells are pre-incubated with final concentrations of test compound for 2 hr and are then stimulated with 0.1 μg/mL of LPS (from E. coli: O111:B4, Sigma) for 4 hr. The supernatant is collected for determination of TNFα and IL-8 concentrations by sandwich ELISA (Duo-set, R&D systems). […] The relative 50% effective concentration (REC50) is determined from the resultant concentration-response curve. The inhibition of IL-8 production is calculated at each concentration of test compound by comparison with vehicle control.

A further assay concerns the target GSK3α (Homo sapiens (Human), UniProt P49840). The experiment in a line: GSK 3α enzyme inhibition (Z-LYTE FRET, Method 2). It counts as biochemical. A digest of the protocol: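 Z-LYTE FRET: GSK3α preincubated with compound 2 h at RT, then FRET peptide and ATP added (stocks 8 μM and 40 μM) for 1 h, followed by 1 h protease development. Compound stocks 4–0.004 μg/mL; phosphorylation from coumarin/fluorescein emission ratio.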

The subject of assay [2] is PBMCs. Nature of the assay: IL-2 and IFN gamma release in CD3/CD28 stimulated PBMC cells. It counts as cell-based. The note with it: Homo sapiens. Summed up: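 They were cultured with compound for 3 days. IL-2 and IFN-γ in supernatants were quantified by sandwich ELISA, and IC50 was derived from the dose-response curve.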
In another assay the target is p38 MAPKα (Homo sapiens (Human), UniProt Q16539). Nature of the assay: p38 MAPKα enzyme inhibition (Z-LYTE FRET, Method 2). It counts as biochemical.
Sequence of p38 MAPKα (Q16539 whole entry): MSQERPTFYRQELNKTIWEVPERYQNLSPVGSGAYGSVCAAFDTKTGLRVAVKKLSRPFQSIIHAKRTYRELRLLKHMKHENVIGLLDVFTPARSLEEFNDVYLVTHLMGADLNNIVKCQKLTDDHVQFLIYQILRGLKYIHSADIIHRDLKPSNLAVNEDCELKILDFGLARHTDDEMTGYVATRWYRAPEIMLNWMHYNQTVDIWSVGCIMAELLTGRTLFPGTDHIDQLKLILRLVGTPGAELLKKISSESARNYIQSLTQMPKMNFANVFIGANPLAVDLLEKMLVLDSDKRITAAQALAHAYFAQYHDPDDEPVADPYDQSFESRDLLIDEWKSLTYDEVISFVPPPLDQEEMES
In the next assay the test system is HT29 cells. Nature of the assay: IL-1β-induced IL-8 release in HT29 cells. It counts as cell-based. The note with it: Homo sapiens. How it is done:
HT29 cells, a human colon adenocarcinoma cell line, are plated in a 96 well plate (24 hrs) and pre-treated with compounds at the desired concentration for 2 hours before addition of 5 ng/mL of IL-1β (Abcam) for 24 hours. Supernatants are harvested for IL-8 quantification by Sandwich ELISA (Duo-set, R&D System). The IC50 is determined from the dose response curve.

A further assay concerns the target Syk (Homo sapiens (Human), UniProt P43405). The experiment in a line: Syk enzyme inhibition (Z-LYTE FRET). It counts as biochemical. A digest of the protocol:
as §1

The subject of the next assay is TNBS-induced colitis. The note with it: for LP inflammation / Ulcer grade: oral gavage BID, conducted over 2 days, mice; for inflammatory cell infiltrate in the reticular and laminar propria zone / ulcer grade and epithelial repair compared to the vehicle control: dosed orally at either 1 or 5 mg/kg.
Where [3] appears, read: dU937, read-out: IC50 Values for Inhibition of Cytokine Release dU937 cells IL-8.
Setting [4] is: dU937, read-out: IC50 Values for Inhibition of Cytokine Release dU937 cells TNFα.
Setting [5] is: read-out: IC50 Values for Inhibition of Cytokine Release PBMCs IL-2.
Where [6] appears, read: HT-29, read-out: IC50 Values for Inhibition of Cytokine Release HT29 cells IL-8.
Setting [7] is: read-out: IC50 Values for Inhibition of Cytokine Release PBMCs IFNγ.

Read-outs that look alike come from different tables or passages of the source.

Sequence of GSK3α (P49840 whole entry): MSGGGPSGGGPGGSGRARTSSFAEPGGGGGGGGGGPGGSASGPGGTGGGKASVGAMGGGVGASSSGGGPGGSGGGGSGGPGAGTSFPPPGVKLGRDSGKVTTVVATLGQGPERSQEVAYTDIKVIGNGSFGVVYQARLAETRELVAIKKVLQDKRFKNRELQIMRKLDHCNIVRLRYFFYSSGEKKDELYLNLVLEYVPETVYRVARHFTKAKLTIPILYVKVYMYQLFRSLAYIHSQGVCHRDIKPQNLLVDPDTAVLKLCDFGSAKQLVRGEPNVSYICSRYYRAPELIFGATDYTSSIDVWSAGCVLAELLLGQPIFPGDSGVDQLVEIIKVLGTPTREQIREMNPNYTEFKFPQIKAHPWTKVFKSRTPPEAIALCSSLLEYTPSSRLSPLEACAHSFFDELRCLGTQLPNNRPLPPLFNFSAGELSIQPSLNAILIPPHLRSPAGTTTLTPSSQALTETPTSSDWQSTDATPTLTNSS
Procedure for TNBS-induced colitis: On Day 0 of the study TNBS (200 μL) is administered intra-colonically via a plastic catheter followed by BID dosing of the vehicle, reference or test compound for 2 or 4 days. During the study animals are weighed every day and stool observations are made and recorded as a score, based on stool consistency. At the time of sacrifice on Day 2 (or Day 4) the large intestine is removed and the length and weight recorded. Sections of the colon are taken for either MPO analysis to determine neutrophil infiltration or for histopathology involving scoring to determine disease severity.

For `C#Cc1cccc(Nc2nccc(Oc3ccc(NC(=O)Nc4cc(C(C)(C)C)nn4-c4ccc(OC)nc4)c4ccccc34)n2)c1` [Example 1, 1-(3-(tert-Butyl)-1-(6-methoxypyridin-3-yl)-1H-pyrazol-5-yl)-3-(4-((2-((3-ethynylphenyl)-amino)pyrimidin-4-yl)oxy)naphthalen-1-yl)urea], the IC50 (in general, the point on the concentration scale where inhibition reaches its midpoint) with PBMCs [1] (LPS-stimulated PBMCs) was 11.5 nM; against c-Src it was 28 nM; with d-U937 cells (dU937, LPS-stimulated d-U937 cells, method describes REC50 relative to BIRB796, read-out: IC50 Values for Inhibition of Cytokine Release dU937 cells TNFα), 3.6 nM; in the assay with d-U937 cells (dU937, LPS-stimulated d-U937 cells, read-out: IC50 Values for Inhibition of Cytokine Release dU937 cells IL-8), 2.1 nM; on GSK3α it was > 10 µM; in the assay on PBMCs [2] (CD3/CD28 stimulated PBMCs, read-out: IC50 Values for Inhibition of Cytokine Release PBMCs IL-2) it was 39.8 nM. Besides, the IC50 on p38 MAPKα turned out to be 316 nM; with HT29 cells (HT-29, IL-1β-stimulated HT29 cells, read-out: IC50 Values for Inhibition of Cytokine Release HT29 cells IL-8), 17.4 nM; at Syk it was 77 nM.

As to `COc1ccc(-n2nc(C(C)(C)C)cc2NC(=O)Nc2ccc(Oc3ccnc(Nc4cccc(N=S(C)(C)=O)c4)n3)c3ccccc23)cn1` [Example 2], the IC50 in the assay with PBMCs [1] amounted to 5.3 nM; against c-Src, 8 nM; in the assay on d-U937 cells (setting [3]), 5.2 nM; with d-U937 cells (setting [4]) it was 16.5 nM; against GSK3α it was 1.85 µM; with PBMCs [2] (setting [5]), 51.1 nM. For the same molecule, the half-maximal inhibitory concentration (IC50) at p38 MAPKα is 81 nM; with HT29 cells (setting [6]), 18.5 nM; on Syk, 15 nM.

As for `COc1ccc(-n2nc(C(C)(C)C)cc2NC(=O)Nc2ccc(Oc3ccnc(Nc4cccc(OS(C)(=O)=O)c4)n3)c3ccccc23)cn1` [Example 3, 3-(4-((4-(3-(3-(tert-Butyl)-1-(6-methoxypyridin-3-yl)-1H-pyrazol-5-yl)ureido)naphthalen-1-yl)oxy)pyrimidin-2-yl)amino)phenyl methanesulfonate], the IC50 was found to be 1.5 nM in the assay with PBMCs [1]; 0.3 nM in the assay with d-U937 cells (setting [4]); 2.54 µM against GSK3α; 1.2 nM in the assay with PBMCs [2] (setting [7]); 9.9 nM in the assay with PBMCs [2] (setting [5]); 28 nM against p38 MAPKα. In addition, the results for the IC50 with HT29 cells (setting [6]) and at Syk were 2.2 nM and 66 nM, respectively.

As for `COCCOCCOCCOc1cccc(Nc2nccc(Oc3ccc(NC(=O)Nc4cc(C(C)C)nn4-c4ccc(C)cc4)c4ccccc34)n2)c1` [Example 9, 1-(3-Isopropyl-1-(P-tolyl)-1H-pyrazol-5-yl)-3-(4-((2-((3-(2-(2-(2-methoxyethoxy)ethoxy)-ethoxy)phenyl)amino)pyrimidin-4-yl)oxy)naphthalen-1-yl)urea], the IC50 in the assay on PBMCs [1] stood at 3.1 nM; against c-Src, 154 nM; in the assay on d-U937 cells (setting [3]), 2.8 nM; in the assay with d-U937 cells (setting [4]), 1.5 nM; at GSK3α, 3.72 µM; at p38 MAPKα, 26 nM. The values for the half-maximal inhibitory concentration (IC50) in the assay with HT29 cells (setting [6]) and against Syk were 4.5 nM and > 1000 nM, respectively.

Turning to `Cc1ccc(-n2nc(C(C)C)cc2NC(=O)Nc2ccc(Oc3ccnc(Nc4cccc(OS(C)(=O)=O)c4)n3)c3ccccc23)cc1` [Example 11, 3-(4-((4-(3-(3-Isopropyl-1-(p-tolyl)-1H-pyrazol-5-yl)ureido)naphthalen-1-yl)oxy)pyrimidin-2-yl)amino)phenyl methanesulfonate], the concentration for half-maximal inhibition (IC50) in the assay on PBMCs [1] came out at 3.6 nM; at c-Src, 20 nM; with d-U937 cells (setting [3]) it was 1.4 nM; with d-U937 cells (setting [4]) it was 0.9 nM; against GSK3α, 8.65 µM; in the assay with PBMCs [2] (setting [5]), 151 nM. Moreover, the IC50 was 50 nM on p38 MAPKα, 5.3 nM in the assay with HT29 cells (setting [6]) and > 622 nM at Syk.

For `COc1cc(Nc2nccc(Oc3ccc(NC(=O)Nc4cc(C(C)C)nn4-c4ccc(C)cc4)c4ccccc34)n2)cc(OS(C)(=O)=O)c1` [Example 12, 3-((4-((4-(3-(3-Isopropyl-1-(p-tolyl)-1H-pyrazol-5-yl)ureido)naphthalen-1-yl)oxy)pyrimidin-2-yl)amino)-5-methoxyphenyl methanesulfonate], the IC50 was 2.8 nM with PBMCs [1]; 39 nM against c-Src; 0.4 nM in the assay with d-U937 cells (setting [4]); 4.7 nM in the assay with PBMCs [2] (setting [7]); 24.8 nM with PBMCs [2] (setting [5]); 422 nM against p38 MAPKα. Moreover, the 50% inhibitory concentration (IC50) came out at 4.3 nM in the assay with HT29 cells (setting [6]) and 238 nM at Syk.

Turning to `COc1cc(Nc2nccc(Oc3ccc(NC(=O)Nc4cc(C(C)C)nn4-c4ccc(C)cc4)c4ccccc34)n2)cc(S(=O)(=O)C2CC2)c1` [Example 18, 1-(4-((2-((3-(Cyclopropylsulfonyl)-5-methoxyphenyl)amino)pyrimidin-4-yl)oxy)naphthalen-1-yl)-3-(3-isopropyl-1-(p-tolyl)-1H-pyrazol-5-yl)urea], the LP inflammation in the assay on TNBS-induced colitis (1 mg/kg) worked out at 2.8 ± 0.4; in the assay on TNBS-induced colitis (5 mg/kg) it was 2.6 ± 0.3. For the same molecule, the Ulcer grade in the assay on TNBS-induced colitis (1 mg/kg) is listed as 3.3 ± 0.4; with TNBS-induced colitis (5 mg/kg) it was 3.0 ± 0.5. Further, in the assay with TNBS-induced colitis, the “inflammatory cell infiltrate in the reticular and laminar propria zone” value is reported as “marked reduction”. The “ulcer grade and epithelial repair compared to the vehicle control” value in the assay on TNBS-induced colitis was “marked improvements”. The half-maximal inhibitory concentration (IC50) in the assay with PBMCs [1] was 2.1 nM; against c-Src it was 27 nM; on GSK3α it was 2.9 µM; with PBMCs [2] (setting [5]), 84.6 nM; on p38 MAPKα, 102 nM; in the assay with HT29 cells (setting [6]) it was 6.2 nM. The molecule also returned an IC50 against Syk of 358 nM.

In the case of `COc1cc(Nc2nccc(Oc3ccc(NC(=O)Nc4cc(C(C)C)nn4-c4ccc(C)cc4)c4ccccc34)n2)cc(SCCO)c1` [Example 22], the LP inflammation with TNBS-induced colitis (1 mg/kg) is 2.6 ± 0.3; in the assay with TNBS-induced colitis (5 mg/kg), 3.8 ± 0.3. For the same molecule, the Ulcer grade with TNBS-induced colitis (1 mg/kg) worked out at 2.8 ± 0.4; in the assay on TNBS-induced colitis (5 mg/kg), 3.7 ± 0.4. In addition, the “inflammatory cell infiltrate in the reticular and laminar propria zone” value with TNBS-induced colitis is “marked reduction”. Also, the “ulcer grade and epithelial repair compared to the vehicle control” value with TNBS-induced colitis is “marked improvements”. Moreover, the IC50 in the assay on PBMCs [1] stood at 2.3 nM; against c-Src, 47 nM; in the assay with PBMCs [2] (setting [5]), 30.7 nM; against p38 MAPKα, 114 nM; in the assay on HT29 cells (setting [6]) it was 5.1 nM; at Syk it was 134 nM.

Consider `COCCOCCOCCOc1cc(Nc2nccc(Oc3ccc(NC(=O)Nc4cc(C(C)(C)C)nn4-c4ccc(C)cc4)c4ccccc34)n2)cc(OC)c1` [Example 37, 1-(3-(tert-Butyl)-1-(p-tolyl)-1H-pyrazol-5-yl)-3-(4-((2-((3-methoxy-5-(2-(2-(2-methoxy-ethoxy)ethoxy)ethoxy)phenyl)amino)pyrimidin-4-yl)oxy)naphthalen-1-yl)urea], for which the 50% inhibitory concentration (IC50) in the assay on PBMCs [1] worked out at 1.8 nM; on c-Src, 11 nM; in the assay on d-U937 cells (setting [3]) it was 1.7 nM; on GSK3α, 6.36 µM; with PBMCs [2] (setting [7]) it was 1.5 nM; in the assay with PBMCs [2] (setting [5]), 34.8 nM. For the same molecule, the values for the half-maximal inhibitory concentration (IC50) on p38 MAPKα, in the assay with HT29 cells (setting [6]) and at Syk were 153 nM, 1.7 nM and 36 nM, respectively.

With `COCCOCCOCCOc1cc(Nc2nccc(Oc3ccc(NC(=O)Nc4cc(C(C)(C)C)nn4-c4ccc(N(C)C)cc4)c4ccccc34)n2)cc(OC)c1` [Example 63, 1-(3-(tert-Butyl)-1-(4-(dimethylamino)phenyl)-1H-pyrazol-5-yl)-3-(4-((2-((3-methoxy-5-(2-(2-(2-methoxyethoxy)ethoxy)ethoxy)phenyl)amino)pyrimidin-4-yl)oxy)naphthalen-1-yl)urea], the concentration for half-maximal inhibition (IC50) turned out to be 2 nM with PBMCs [1]; 13 nM against c-Src; 0.6 nM in the assay with d-U937 cells (setting [3]); 0.4 nM in the assay with d-U937 cells (setting [4]); 4.82 µM on GSK3α; 1.5 nM in the assay on PBMCs [2] (setting [7]). The concentration for half-maximal inhibition (IC50) in the assay with PBMCs [2] (setting [5]) worked out at 76.2 nM; against p38 MAPKα, 187 nM; in the assay with HT29 cells (setting [6]), 2 nM.
